Data as given in patent US20120251551A1, “Substituted (Heteroarylmethyl)thiohydantoins” (BAYER PHARMA AKTIENGESELLSCHAFT, priority 2009, published 2012).

Experiment: Determination of metabolic stability in vitro (calculation of hepatic in vivo blood clearance)
Assay type: in vitro ADME
Details: pH 7.4, human liver microsomes, calculated from half-life, read-out: calculated hepatic in vivo blood clearance (CL) (converted)
Description: Determination of Metabolic Stability In Vitro (Including Calculation of Hepatic In Vivo Blood Clearance (CL) and of Maximal Oral Bioavailability (Fmax))
The metabolic stability of test compounds in vitro was determined by incubating them at 1 μM with a suspension of human liver microsomes in 100 mM phosphate buffer, pH7.4 (NaH2PO4×H2O+Na2HPO4×2H2O) at a protein concentration of 0.5 mg/ml and at 37° C. The reaction was activated by adding a co-factor mix containing 1.2 mg NADP, 3 IU glucose-6-phosphate dehydrogenase, 14.6 mg glucose-6-phosphate and 4.9 mg MgCl2 in phosphate buffer, pH 7.4. Organic solvent in the incubations was limited to <0.2% dimethylsulfoxide (DMSO) and <1% methanol. During incubation, the microsomal suspensions were continuously shaken and aliquots were taken at 2, 8, 16, 30, 45 and 60 min, to which equal volumes of cold methanol were immediately added. Samples were freezed at −20° C. over night, subsequently centrifuged for 15 minutes at 3000 rpm and the supernatant was analyzed with an Agilent 1200 HPLC-system with LCMS/MS detection.
The half-life of a test compound was determined from the concentration-time plot. From the half-life the intrinsic clearances were calculated. Together with the additional parameters liver blood flow, specific liver weight and microsomal protein content the hepatic in vivo blood clearance (CL) and the maximal oral bioavailability (Fmax) were calculated for the different species. The following parameter values were used: Liver blood flow—1.3 l/h/kg human; specific liver weight—21 g/kg human; microsomal protein content—40 mg/g.
With the described assay only phase-I metabolism of microsomes is reflected, e.g. typically oxidoreductive reactions by cytochrome P450 enzymes and flavin mono-oxygenases (FMO) and hydrolytic reactions by esterases (esters and amides).

| SMILES | CLhep predicted at 1 µM |
| --- | --- |
| CC1(C)C(=O)N(c2ccc(C#N)c(C(F)(F)F)c2)C(=S)N1Cc1ccc(-n2ccnc2)nc1 [Example 1, 4-(3-{[6-(1H-Imidazol-1-yl)pyridin-3-yl]methyl}-4,4-dimethyl-5-oxo-2-thioxoimidazolidin-1-yl)-2-(trifluoromethyl)benzonitrile] | 4.33 mL/min/kg |
| CC1(C)C(=O)N(c2ccc(C#N)c(C(F)(F)F)c2)C(=S)N1Cc1ccc(C(F)(F)F)nc1 [Example 2, 4-(4,4-Dimethyl-5-oxo-2-thioxo-3-{[6-(trifluoromethyl)pyridin-3-yl]methyl}imidazolidin-1-yl)-2-(trifluoromethyl)benzonitrile] | 6.5 mL/min/kg |
| CC1(C)C(=O)N(c2ccc(C#N)c(C(F)(F)F)c2)C(=S)N1Cc1ccc(N2CCS(=N)(=O)CC2)nc1 [Example 9, 4-(3-{[6-(1-Imino-1-oxido-1λ^6-thiomorpholin-4-yl)pyridin-3-yl]methyl}-4,4-dimethyl-5-oxo-2-thioxoimidazolidin-1-yl)-2-(trifluoromethyl)benzonitrile] | 8 mL/min/kg |
| CC(C)(O)COc1ccc(CN2C(=S)N(c3ccc(C#N)c(C(F)(F)F)c3)C(=O)C2(C)C)cn1 [Example 10, 4-(3-{[6-(2-Hydroxy-2-methylpropoxy)pyridin-3-yl]methyl}-4,4-dimethyl-5-oxo-2-thioxoimidazolidin-1-yl)-2-(trifluoromethyl)benzonitrile] | 5.83 mL/min/kg |
| Cc1nc(C(F)(F)F)ccc1CN1C(=S)N(c2ccc(C#N)c(C(F)(F)F)c2)C(=O)C1(C)C [Example 13, 4-(4,4-Dimethyl-3-{[2-methyl-6-(trifluoromethyl)pyridin-3-yl]methyl}-5-oxo-2-thioxoimidazolidin-1-yl)-2-(trifluoromethyl)benzonitrile] | 3.17 mL/min/kg |
